Measured values as given in patent publication US7629156B2, “Ethanol production in fermentation of mixed sugars containing xylose” (E.I. du Pont de Nemours and Company, priority 2006, dated 2009).

Experiments:
Type in all cases: cell-based, Zymomonas mobilis
ZW658 strain [1] = experiment: Tube fermentation of ZW658 on glucose and xylose with various sugar alcohols (Example 14); conditions: for ethanol production / xylose utilization: 10 mM sugar alcohol vs control; for OD600: after 48 hours, 10 mM sugar alcohol, 92 g/L glucose, 82 g/L xylose
Procedure: (§1) Approximately 1 ml of well mixed sample was obtained from flask or fermentor. First the sample absorbance was measured directly with a spectrophotometer (Amersham Biosciences Ultrospec 3300pro, GE Healthcare, Piscataway, N.J., USA). If the reading was lower than 0.6 unit, no dilution was needed. If the reading was higher than 0.6 unit, the sample was diluted with culture medium until the actual reading was in the range of 0.1 to 0.6 unit. The original OD was calculated from the dilution ratio and the actual reading.
(§2) The analysis of sugars, acetate, ethanol, and other by-products was done with an Agilent 1100 series HPLC and Agilent ChemStation software for LC 3D. The column was BioRad Aminex HPX-87H(HPLC Organic Analysis Column 125-0140) with BioRad Micro-Guard Cartridge Cation-H (125-0129). The operating conditions were:
In six sterilized 50 ml screw-cap centrifuge tubes (Cat. No. 21008-178, VWR International, USA), 200 μl of ZW658 strain glycerol stock at OD600 of approximately 10 was inoculated into each flask with 25 ml of aqueous solution containing 92 g/L glucose, 82 g/L xylose, 10 g/L yeast extract (YE), 2 g/L KH2PO4, 1 g/L MgSO4.7H2O, and 10 mM of D-sorbitol, L-sorbitol, D-threitol, myo-inositol, or xylitol. The control had no addition of sugar alcohol. Initial pH was adjusted to 5.5 with 4 N H3PO4 solution. Fermentation was conducted at 33° C. and pH was not controlled. Samples were taken periodically between 0 and 48 hr. Samples were filtered through 0.22 micron filters, and the filtrates were analyzed by HPLC as described in General Methods for glucose, xylose, xylitol, and ethanol. Samples were diluted with medium (as described in General Methods) and the OD600 was measured to monitor cell growth. Results of growth and glucose utilization are given in FIGS. 22A and 22B, respectively. Results of xylose utilization and ethanol production are given in FIGS. 23A and 23B, respectively. Cultures with D-sorbitol or L-sorbitol grew faster and better than the control. After 48 hours, the OD600 were 6.2 and 5.2, respectively, for cultures supplemented with D-sorbitol or L-sorbitol; while the OD600 were less than 1 for other cultures. […] The presence of D-sorbitol or L-sorbitol allowed more xylose utilization, without production of xylitol.

ZW658 strain [2] = experiment: Tube fermentation of ZW658 on glucose and xylose with various sugar alcohols (Example 13); conditions: for ethanol production / xylose utilization: sugar alcohol in the medium vs control
Procedure: as §1, §2
In eight sterilized 50 ml screw-cap centrifuge tubes (Cat. No. 21008-178, VWR International, USA), 200 μl of ZW658 strain glycerol stock at OD600 of approximately 10 was inoculated into each flask with 25 ml of aqueous solution containing 92 g/L glucose, 82 g/L xylose, 10 g/L yeast extract (YE), 2 g/L KH2PO4, 1 g/L MgSO4.7H2O, and either 10 mM of sorbitol, arabitol, adonitol (also called ribitol), or galactitol; or 50 mM of arabitol, adonitol, or galactitol. The control had no sugar alcohol added. Initial pH was adjusted to 5.5 with 4 N H3PO4 solution. Fermentation was conducted at 33° C. and pH was not controlled. Samples were taken periodically between 0 and 40 hr. Samples were filtered through 0.22 micron filters, and the filtrates were analyzed by HPLC as described in General Methods for glucose, xylose, xylitol, and ethanol. Samples were diluted with medium (as described in General Methods) and the OD600 was measured to monitor cell growth. Results of growth and glucose utilization are given in FIGS. 20A and 20B, respectively. Results of xylose utilization and ethanol production are given in FIGS. 21A and 21B, respectively. Cultures with sorbitol or galactitol grew much faster and better than the control. Cultures with adonitol also grew better. After 40 hours, the OD600 were 7 to 8, for cultures supplemented with sorbitol or galactitol; the OD600 were about 5, for cultures supplemented with adonitol; while the OD600 were less than 1 for other cultures. […] The presence of sorbitol, galactitol, or adonitol allowed more xylose utilization, without production of xylitol.

ZW658 strain [3] = experiment: Flask fermentation of ZW658 on glucose and xylose with various polyols; conditions: 10 mM polyol; for ethanol production / xylose utilization: mixed sugars; for OD600: after 32 hours, total sugar about 160 g/L, 33° C.
Procedure: as §1, §2
(§3) Glycerol stock of seed frozen at −80° C. was thawed, then inoculated into sterile culture tubes with mixture of 60 g/L glucose, 20 g/L xylose, 10 g/L yeast extract (YE), 10 g/L KH2PO4, 2 g/L (NH4)2SO4, and 1 g/L MgSO4. Initial pH was adjusted to 5.5 with 4 N KOH. This revival culture was grown statically overnight at 37° C. It was transferred into shake flasks with 75 g/L glucose, 25 g/L xylose, 10 g/L yeast extract (YE), 10 g/L KH2PO4, 2 g/L (NH4)2SO4, and 1 g/L MgSO4. Initial pH was adjusted to 5.5 with 4 N KOH. Growth was monitored by measuring OD600. When the OD reached approximately 5, a certain volume of the seed was withdrawn into a sterile syringe for inoculation.
In five sterilized 125 ml Erlenmeyer culture flasks (Cat. No. 30180-036, VWR International, USA), 10 ml of ZW658 strain seed culture at OD600 of approximately 5 was inoculated into each flask with 100 ml of aqueous solution containing 100 g/L glucose, 80 g/L xylose, 10 g/L yeast extract (YE), 2 g/L KH2PO4, 1 g/L MgSO4.7H2O, and 4 g/L KHCO3, and 10 mM of one of the following polyols: erythritol, sorbitol, mannitol, maltitol, or lactitol. After inoculation, the total sugar concentration was about 160 g/L due to dilution by the seed culture. Initial pH was adjusted to 5.5 with 4 N H3PO4 solution. Mixing speed was set at 150 rpm. Fermentation was conducted at 33° C. and pH was not controlled. Samples were taken periodically. Samples were filtered through 0.22 micron filters, and the filtrates were analyzed by HPLC as described in General Methods for compounds including glucose, xylose, ethanol, xylitol, and acetic acid. Samples were diluted with medium (as described in General Methods) and the OD600 was measured to monitor cell growth. […] Cultures with sorbitol or mannitol grew faster and better. After 32 hours, the OD600 were 13.94 and 13.92, respectively, for cultures supplemented with sorbitol or mannitol; meanwhile, the OD600 were 9.48, 9.02, and 9.24, respectively, for cultures supplemented with erythritol, maltitol, or lactitol. […] The presence of sorbitol or mannitol allowed more xylose utilization, without production of xylitol.

ZW658 strain [4] = experiment: Flask fermentation of ZW658 on glucose and xylose with acetate and various polyols; conditions: 10 mM polyol, 3 g/L acetate; for OD600: after 32 hours, total sugar about 160 g/L
Procedure: as §1, §2, §3
In five sterilized 125 ml Erlenmeyer culture flasks (Cat. No. 30180-036, VWR International, USA), 10 ml of ZW658 strain seed culture at OD600 of approximately 5 was inoculated into each flask with 100 ml of aqueous solution containing 100 g/L glucose, 80 g/L xylose, 3 g/L acetate, 10 g/L yeast extract (YE), 2 g/L KH2PO4, 1 g/L MgSO4.7H2O, and 4 g/L KHCO3, and 10 mM of the following polyols: erythritol, sorbitol, mannitol, maltitol, or lactitol; or 5 mM sorbitol plus 5 mM maltitol, or 5 mM sorbitol plus 5 mM lactitol. After inoculation, the total sugar concentration was about 160 g/L due to dilution by the seed culture. Initial pH was adjusted to 5.5 with 4 N H3PO4 solution. Mixing speed was set at 150 rpm. Fermentation was conducted at 33° C. and pH was not controlled. Samples were taken periodically. Samples were filtered through 0.22 micron filters, and the filtrates were analyzed by HPLC as described in General Methods for compounds including glucose, xylose, ethanol, and acetate. Samples were diluted with medium (as described in General Methods) and the OD600 was measured to monitor cell growth.

ZW658 strain [5] = experiment: 1-liter fermentor, ZW658 on high concentration glucose and xylose with sorbitol or glutamate
Procedure: as §1, §2, §3
In a sterilized 1-liter fermentor (BIOSTAT® B-DCU system, Sartorius BBI System Inc., Bethlehem, Pa., USA), 50 ml of ZW658 strain seed culture at Optical Density of approximately 5 (measured at 600 nm) was inoculated into 450 ml of aqueous solution containing sugars and medium. The final mixed broth contained 100 g/L glucose, 85.1 g/L xylose, 10 g/L yeast extract (YE), 2 g/L KH2PO4, and 10 mM sorbitol. pH was adjusted to 5.5 with 4 N KOH solution. Mixing speed was set at 150 rpm. Fermentation was conducted at 33° C. and pH 5.5. Samples were taken periodically. Samples were filtered through 0.22 micron filters, and the filtrates were analyzed by HPLC as described in General Methods for compounds including glucose, xylose, ethanol, and acetate. Samples were also diluted with medium (as described in General Methods) and the OD600 was measured to monitor cell growth. […] The by-product xylitol concentration was 0.67 g/L at 29 hr, and increased to 0.95 g/L at 64 hr.
In a sterilized 1-liter fermentor (BIOSTAT® B-DCU system, Sartorius BBI System Inc., Bethlehem, Pa., USA), 50 ml of ZW658 strain seed culture at OD600 of approximately 5 was inoculated into 450 ml of aqueous solution containing sugars and medium. The final mixed broth contained 98.0 g/L glucose, 81.2 g/L xylose, 10 g/L yeast extract (YE), 2 g/L KH2PO4, and 10 mM potassium glutamate. pH was adjusted to 5.5 with 4 N KOH solution. Mixing speed was set at 150 rpm. Fermentation was conducted at 33° C. and pH 5.5. Samples were taken periodically. Samples were filtered through 0.22 micron filters, and the filtrates were analyzed by HPLC as described in General Methods for compounds including glucose, xylose, xylitol, ethanol, and acetic acid. Samples were also diluted with medium (as described in General Methods) and the OD600 was measured to monitor cell growth. […] However, xylose was not well-utilized, cell growth and ethanol production were reduced as compared to that in the presence of sorbitol (Example 4), and xylitol production increased.

[6] = after 63.75 hours, 10 mM potassium glutamate
[7] = in the presence of glutamate, mixed sugars

OC[C@@H](O)[C@@H](O)[C@H](O)[C@@H](O)CO [D-sorbitol]
ethanol production (ZW658 strain [1]): ethanol production was also better
xylose utilization (ZW658 strain [1]): More xylose was utilized
OD600 (ZW658 strain [1]): 6.2

OC[C@@H](O)[C@H](O)[C@@H](O)[C@@H](O)CO [L-sorbitol]
ethanol production (ZW658 strain [1]): ethanol production was also better
xylose utilization (ZW658 strain [1]): More xylose was utilized
OD600 (ZW658 strain [1]): 5.2

OC[C@@H](O)[C@@H](O)[C@@H](O)CO [adonitol]
OD600 (ZW658 strain [2]; after 40 hours, 10 mM sorbitol, 10 mM or 50 mM other sugar alcohols, 92 g/L glucose, 82 g/L xylose): about 5
ethanol production (ZW658 strain [2]): ethanol production was also better
xylose utilization (ZW658 strain [2]): More xylose was utilized

OC[C@@H](O)[C@@H](O)CO [erythritol]
ethanol production (ZW658 strain [3]): do not increase ethanol production
xylose utilization (ZW658 strain [3]): nor do they increase xylose utilization
OD600 (ZW658 strain [3]): 9.48
OD600 (ZW658 strain [4]): 5.20

OC[C@@H](O)[C@H](O)[C@H](O)[C@@H](O)CO [galactitol]
ethanol production (ZW658 strain [2]): ethanol production was also better
xylose utilization (ZW658 strain [2]): More xylose was utilized

N[C@@H](CCC(=O)[O-])C(=O)[O-].[K+].[K+] [glutamate, potassium glutamate, reference compound]
effect on lag period (ZW658 strain [5]; 10 mM potassium glutamate): reduced the lag period
time at which glucose concentration reached 0 (ZW658 strain [5]; 10 mM potassium glutamate): 24 h
OD600 cells grew to (ZW658 strain [5]; [6]): 6.9
by-product xylitol concentration (ZW658 strain [5]; [6]): 4.38 g/L
ethanol concentration (ZW658 strain [5]; [6]): 72.3 g/L
xylose concentration (ZW658 strain [5]; after 63.75 hours, 98.0 g/L glucose, 81.2 g/L xylose, 10 mM potassium glutamate): 21.2 g/L
glucose concentration (ZW658 strain [5]; after 63.75 hours, 98.0 g/L glucose, 81.2 g/L xylose, 10 mM potassium glutamate, 33° C., pH 5.5): 0 g/L
effect on ethanol production (ZW658 strain [5]; [7]): ethanol production is not improved
effect on xylitol production (ZW658 strain [5]; [7]): xylitol production is not reduced
effect on xylose utilization (ZW658 strain [5]; [7]): xylose utilization is not enhanced

OC[C@@H](O)[C@@H](O[C@@H]1O[C@H](CO)[C@H](O)[C@H](O)[C@H]1O)[C@H](O)[C@@H](O)CO [lactitol]
ethanol production (ZW658 strain [3]): do not increase ethanol production
xylose utilization (ZW658 strain [3]): nor do they increase xylose utilization
OD600 (ZW658 strain [3]): 9.24
OD600 (ZW658 strain [4]): 5.30

OC[C@@H](O)[C@@H](O[C@H]1O[C@H](CO)[C@@H](O)[C@H](O)[C@H]1O)[C@H](O)[C@@H](O)CO [maltitol]
ethanol production (ZW658 strain [3]): do not increase ethanol production
xylose utilization (ZW658 strain [3]): nor do they increase xylose utilization
OD600 (ZW658 strain [3]): 9.02
OD600 (ZW658 strain [4]): 5.20

OC[C@@H](O)[C@@H](O)[C@H](O)[C@H](O)CO [mannitol]
ethanol production (ZW658 strain [3]): ethanol production was also better
xylose utilization (ZW658 strain [3]): More xylose was utilized
OD600 (ZW658 strain [3]): 13.92
ethanol production (ZW658 strain [4]): ethanol production was also better
xylose utilization (ZW658 strain [4]): More xylose was utilized
OD600 (ZW658 strain [4]): 7.40
